# Tests used:
# Type in all cases: cell-based, human
# NF-κB [1] = assay: EMSA of constitutive nuclear NF-κB DNA binding, LNCaP; conditions: LNCaP prostate carcinoma; catalase 3,000 U/ml for 24 hours
# Method: The effect of antioxidants on nuclear activation of NF-κB was studied by incubating near confluent (70%) cell cultures with antioxidant treatments for 1-48 hours. Nuclear protein was harvested, and EMSAs were performed using DNA consensus binding sequences, or nuclear translocation of the p65 component of NF-κB was studied by immunoperoxidase staining, as outlined below.
# Electrophoretic Mobility Shift Assays (EMSAs). Nuclear protein was isolated and DNA binding reactions were performed as previously described in detail, Kennedy et al., Am. J. Respir. Cell Mol. Biol. 19:366-378 (1998). Monolayers were washed twice in cold DPBS and equilibrated 10 min on ice with 0.7 ml cold cytoplasmic extraction buffer, CEB (10 mM Tris, pH 7.9, 60 mM KCl, 1 mM EDTA, 1 mM DTT) with protease inhibitors, PI (1 mM Pefabloc, 50 μg/ml antipain, 1 μg/ml leupeptin, 1 μg/ml pepstatin, 40 μg/ml bestatin, 3 μg/ml E-64 and 100 μg/ml chymostatin). […] DNA-protein binding reactions were performed with 2 μg of nuclear protein (as determined by the Pierce method) and 30-80,000 cpm of ^32P-end-labelled double-stranded DNA probe in 10 mM Tris-HCl, pH 7.5, 50 mM NaCl, 0.5 mM EDTA, 0.5 mM DTT, 1 mM MgCl2, 50 μg/ml poly dI-dC, and 4% glycerol. […] Gels were dried and analyzed by autoradiography at −80° C. using an image intensifier screen. […]
# [2] = test system: phosphorylated IκBα (IκBα-P); assay: Immunoassay for phosphorylated IκBα; conditions: M1619; catalase 3,000 U/ml for 24 hours
# Method: The effect of antioxidants on expression of cell cyclins, cyclin-associated kinases, cell cycle inhibitors and IκBα was studied by incubating near confluent cell cultures with antioxidant treatments for 15 min-48 hours. Cells were lysed and protein levels were measured by immunoblot assay as described below. In other experiments, the ratio of phosphorylated-IκBα to total IκBα was determined by harvest of cytosolic protein 24 hours after treating cultures with 3,000 U/ml catalase.
# The NF-κB inhibitor IκBα and phosphorylated IκBα were assayed with several modifications of the above procedure. Cells were lysed in boiling buffer to which 50 mM DTT had been added as a reducing agent. Immunoassay of IκBα. proceeded as above, but samples for measurement of phosphorylated IκBα were blocked 2 hours at room temperature and incubated overnight at 4° C. with primary phospho-specific antibodies diluted 1:1000 in PBS with 0.1% Tween and 5% BSA.
# M1619 cells either treated with catalase with 3,000 U/ml for 24 hours or untreated were used in immunoassays for phosphorylated IκBα (IκBα-P) using phospho-specific antibody as described above.
# Mean ratios of the densitometrically determined sum intensities of IκBα-P staining in the immunoassay experiments are shown in FIG. 5B.
# NF-κB [3] = assay: EMSA of constitutive nuclear NF-κB DNA binding, M1619; conditions: 24 hours, catalase 3,000 U/ml, NAC 20 mM, Ebselen 25 μM, dicumarol 250 μM
# Excerpt: Electrophoretic Mobility Shift Assays (EMSAs). […] J. Respir.
substance,measurement,setting,value
Catalase,constitutive nuclear DNA binding activity for NF-κB,NF-κB [1],suppressed
same,amount of IκBα that is phosphorylated,[2],decreases
same,constitutive NF-κB DNA binding activity in nuclear protein,NF-κB [3],substantially reduced

# Reference: US20070142462A1, “Method of Treating Cancer” (The University of Utah, priority 2000, published 2007)
